Reference: PMC8400635, “A Bidirectional Permeability Assay for beyond Rule of 5 Compounds” (Pharmaceutics, 2021)

Key:
P-gp = assay: Modified bidirectional permeability assay (24 h preincubation), Caco-2 cells; settings: human, Caco-2, pH 7.4, with zosuquidar 5 µM
Caco-2 cells = assay: as above; settings: Caco-2, modified assay; 5 µM zosuquidar
[1] = as above; settings: human, Caco-2, pH 7.4
[2] = Standard bidirectional permeability assay, Caco-2 cells; assay type: in vitro ADME; settings: human; for Papp A→B at 10 µM: read-out: Caco-2 Papp,AB; for Papp B→A at 10 µM: read-out: Caco-2 PappBA
P-gp (MDR1) = assay: Standard bidirectional permeability assay, MDCK-MDR1 cells; assay type: in vitro ADME, canine; settings: dog, MDCK-MDR1, pH 7.4, 10 µM in donor; for Papp A→B at 10 µM: read-out: MDCK-MDR1 Papp,AB
[3] = as above; assay type: in vitro ADME, canine; settings: dog, MDCK-MDR1, pH 7.4, 10 µM in donor, read-out: MDCK-MDR1 PappBA
[4] = pH 7.4, Caco-2, standard conditions
[5] = Caco-2, pH 7.4, standard assay, 10 µM in donor

Structure (SMILES)	Papp A→B at 1 µM (P-gp) [×10⁻⁶ cm/s]	inhibition of efflux by zosuquidar (P-gp substrate) (Caco-2 cells)	Papp A→B at 1 µM [1] [×10⁻⁶ cm/s]	efflux ratio at 1 µM [1]	Papp ([2]; pH 7.4, Caco-2, standard assay, read-out: intrinsic permeability) [×10⁻⁶ cm/s]	Papp A→B [2, 4] [×10⁻⁶ cm/s]	efflux ratio [2, 4]	efflux ratio at 10 µM (P-gp (MDR1))	Papp A→B at 10 µM (P-gp (MDR1)) [×10⁻⁶ cm/s]	Papp B→A at 10 µM [3] [×10⁻⁶ cm/s]	efflux ratio at 10 µM [2, 5]	Papp A→B at 10 µM [2, 5] [×10⁻⁶ cm/s]	Papp B→A at 10 µM [2, 5] [×10⁻⁶ cm/s]
Cc1nnc2n1-c1sc(CCC(=O)N3CCOCC3)cc1C(c1ccccc1Cl)=NC2 [Apafant, apafant]	13	inhibited completely	2.6	13.8	14	2.3	15.9	–	–	–	–	–	–
CC(C)NCC(O)COc1cccc2ccccc12 (stereo not drawn) [Propranolol]	–	–	–	–	–	–	–	0.8	38.4	32.6	1.1	79	69.5
COCCc1ccc(OCC(O)CNC(C)C)cc1 (stereo not drawn) [Metoprolol]	–	–	–	–	–	–	–	1	67.7	68.5	–	54.3	41
